Measured values: ChEMBL document CHEMBL6109153, “Development of Membrane-Targeting Osthole Derivatives Containing Pyridinium Quaternary Ammonium Moieties with Potent Anti-Methicillin-Resistant Staphylococcus aureus Properties” (J Med Chem, 2025)
Active and inactive are the calls of the source. The rule behind the calls is not given here.

Experiments:
Staphylococcus aureus [1] = assay: Antibacterial activity against methicillin-resistant Staphylococcus aureus M11 infected in BALB/c mouse model of Sepsis assessed as reduction in bacterial load in skin tissues at 4 mg/kg measured after 24 hrs; format: functional
Staphylococcus aureus [2] = assay: Antibacterial activity against methicillin-resistant Staphylococcus aureus M11 infected in BALB/c mouse model of Sepsis assessed as reduction in abscess size on back at 4 mg/kg measured after 24 hrs; format: functional, organism-based
Staphylococcus aureus [3] = assay: Antibacterial activity against methicillin-resistant Staphylococcus aureus M11 infected in BALB/c mouse model of Sepsis assessed as reduction in bacterial load in skin tissues at 8 mg/kg measured after 24 hrs; format: functional
[4] = Toxicity in BALB/c mouse model of Sepsis infected with methicillin-resistant Staphylococcus aureus M11 assessed as survival rate at 15 mg/kg, ip measured after 7 days; format: organism-based; conditions: in vivo, 168 h, time 7 day
Staphylococcus aureus [5] = assay: Antibacterial activity against methicillin-resistant Staphylococcus aureus M11 infected in BALB/c mouse model of Sepsis assessed as reduction in swelling in inner epidermal abscesses at 4 mg/kg measured after 24 hrs; format: functional, organism-based
Staphylococcus aureus [6] = assay: Antibacterial activity against methicillin-resistant Staphylococcus aureus M11 infected in BALB/c mouse model of Sepsis assessed as reduction in hepatic sinusoidal dilation at 10 mg/kg, ip measured after 48 hrs; format: functional, organism-based
Staphylococcus aureus [7] = assay: Antibacterial activity against methicillin-resistant Staphylococcus aureus M11 infected in BALB/c mouse model of Sepsis assessed as reduction in bacterial load in liver at 20 mg/kg, ip measured after 48 hrs; format: functional
Staphylococcus aureus [8] = assay: Antibacterial activity against methicillin-resistant Staphylococcus aureus M11 infected in BALB/c mouse model of Sepsis assessed as reduction in bacterial count in skin tissues at 8 mg/kg measured after 24 hrs relative to control; format: functional; parameters: scale not given: the % may be the effect or the level left
Staphylococcus aureus [9] = assay: Antibacterial activity against methicillin-resistant Staphylococcus aureus M11 infected in BALB/c mouse model of Sepsis assessed as reduction in inflammatory cell infiltration in skin tissues at 4 to 8 mg/kg measured after 24 hrs by H and E staining based analysis; format: functional, organism-based; conditions: dose 4-8 mg/kg
Staphylococcus aureus [10] = assay: Antibacterial activity against methicillin-resistant Staphylococcus aureus M11 infected in BALB/c mouse model of Sepsis assessed as reduction in bacterial load in spleen at 20 mg/kg, ip measured after 48 hrs; format: functional
[11] = Toxicity in BALB/c mouse model of Sepsis infected with methicillin-resistant Staphylococcus aureus M11 assessed as survival rate at 5 mg/kg, ip measured after 7 days; format: organism-based; conditions: in vivo, 168 h, time 7 day
Staphylococcus aureus [12] = assay: Antibacterial activity against methicillin-resistant Staphylococcus aureus M11 infected in BALB/c mouse model of Sepsis assessed as reduction in bacterial load in kidney at 20 mg/kg, ip measured after 48 hrs; format: functional
Staphylococcus aureus [13] = assay: Induction of bacterial eradication in methicillin-resistant Staphylococcus aureus M11 at 8 times MIC incubated for 8 hrs by time-kill assay; format: functional, organism-based
[14] = Toxicity in BALB/c mouse model of Sepsis infected with methicillin-resistant Staphylococcus aureus M11 assessed as survival rate at 10 mg/kg, ip measured after 7 days; format: organism-based; conditions: in vivo, 168 h, time 7 day
Staphylococcus aureus [15] = assay: Antibacterial activity against methicillin-resistant Staphylococcus aureus M11 infected in BALB/c mouse model of Sepsis assessed as reduction in redness in inner epidermal abscesses at 4 mg/kg measured after 24 hrs; format: functional, organism-based
Staphylococcus aureus [16] = assay: Antibacterial activity against methicillin-resistant Staphylococcus aureus M11 infected in BALB/c mouse model of Sepsis assessed as vacuolar degeneration in liver cells at 10 mg/kg, ip measured after 48 hrs; format: functional, organism-based
Staphylococcus aureus [17] = assay: Antibacterial activity against methicillin-resistant Staphylococcus aureus M11 infected in BALB/c mouse model of Sepsis assessed as reduction in hepatic congestion at 10 mg/kg, ip measured after 48 hrs; format: functional, organism-based
Staphylococcus aureus [18] = assay: Antibacterial activity against methicillin-resistant Staphylococcus aureus M11 infected in BALB/c mouse model of Sepsis assessed as reduction in bacterial count in skin tissues at 4 mg/kg measured after 24 hrs relative to control; format: functional; parameters: scale not given: the % may be the effect or the level left
Staphylococcus aureus [19] = assay: Antibacterial activity against methicillin-resistant Staphylococcus aureus M14 incubated for 16 to 20 hrs by broth microdilution method; format: functional; conditions: time 16-20 hrs
Staphylococcus aureus [20] = assay: Antibacterial activity against methicillin-resistant Staphylococcus aureus M22 incubated for 16 to 20 hrs by broth microdilution method; format: functional; conditions: time 16-20 hrs
Staphylococcus aureus [21] = assay: Antibacterial activity against methicillin-resistant Staphylococcus aureus M12 incubated for 16 to 20 hrs by broth microdilution method; format: functional; conditions: time 16-20 hrs
Staphylococcus aureus [22] = assay: Antibacterial activity against methicillin-resistant Staphylococcus aureus M13 incubated for 16 to 20 hrs by broth microdilution method; format: functional; conditions: time 16-20 hrs
[23] = Hemolytic activity against sheep erythrocytes; format: toxicity, cell-based, Ovis aries, Erythrocyte
Staphylococcus aureus [24] = assay: Antibacterial activity against methicillin-resistant Staphylococcus aureus M21 incubated for 16 to 20 hrs by broth microdilution method; format: functional; conditions: time 16-20 hrs
Staphylococcus aureus [25] = assay: Antibacterial activity against methicillin-resistant Staphylococcus aureus M17 incubated for 16 to 20 hrs by broth microdilution method; format: functional; conditions: time 16-20 hrs
Staphylococcus aureus [26] = assay: Antibacterial activity against methicillin-resistant Staphylococcus aureus M23 incubated for 16 to 20 hrs by broth microdilution method; format: functional; conditions: time 16-20 hrs
Staphylococcus aureus [27] = assay: Antibacterial activity against Staphylococcus aureus ATCC 29213 incubated for 16 to 20 hrs by broth microdilution method; format: functional; conditions: time 16-20 hrs
Staphylococcus aureus [28] = assay: Antibacterial activity against methicillin-resistant Staphylococcus aureus M20 incubated for 16 to 20 hrs by broth microdilution method; format: functional; conditions: time 16-20 hrs
Escherichia coli = assay: Antibacterial activity against Escherichia coli ATCC 25922 incubated for 16 to 20 hrs by broth microdilution method; format: functional; conditions: time 16-20 hrs
Staphylococcus aureus [29] = assay: Antibacterial activity against methicillin-resistant Staphylococcus aureus M11 incubated for 16 to 20 hrs by broth microdilution method; format: functional; conditions: time 16-20 hrs
Staphylococcus aureus [30] = assay: Antibacterial activity against methicillin-resistant Staphylococcus aureus M16 incubated for 16 to 20 hrs by broth microdilution method; format: functional; conditions: time 16-20 hrs
Staphylococcus aureus [31] = assay: Induction of cell permeability in methicillin-resistant Staphylococcus aureus M11 assessed as fold increase in fluorescence intensity at 32 times MIC by SYTOX Green dye based analysis relative to control; format: functional

Row | Compound | MIC (Staphylococcus aureus [19]) [µg/mL] | MIC (Staphylococcus aureus [20]) [µg/mL] | MIC (Staphylococcus aureus [21]) [µg/mL] | MIC (Staphylococcus aureus [22]) [µg/mL] | HC50 [23] [µg/mL] | MIC (Staphylococcus aureus [24]) [µg/mL] | MIC (Staphylococcus aureus [25]) [µg/mL] | MIC (Staphylococcus aureus [26]) [µg/mL] | MIC (Staphylococcus aureus [27]) [µg/mL] | MIC (Staphylococcus aureus [28]) [µg/mL] | MIC (Escherichia coli) [µg/mL] | MIC (Staphylococcus aureus [29]) [µg/mL] | MIC (Staphylococcus aureus [30]) [µg/mL] | also measured
1 | CN[C@H](CC(C)C)C(=O)N[C@H]1C(=O)N[C@@H](CC(N)=O)C(=O)N[C@H]2C(=O)N[C@H]3C(=O)N[C@H](C(=O)N[C@H](C(=O)O)c4cc(O)cc(O)c4-c4cc3ccc4O)[C@H](O)c3ccc(c(Cl)c3)Oc3cc2cc(c3O[C@@H]2O[C@H](CO)[C@@H](O)[C@H](O)[C@H]2O[C@H]2C[C@](C)(N)[C@H](O)[C@H](C)O2)Oc2ccc(cc2Cl)[C@H]1O [VANCOMYCIN] | – | – | – | – | – | – | – | – | – | – | – | – | – | Activity (Staphylococcus aureus [1]): 1.578 log10CFU/g; Activity (Staphylococcus aureus [2]): Active; Activity (Staphylococcus aureus [3]): 3.96 log10CFU/g; Survival [4]: 100%; Activity (Staphylococcus aureus [5]): Active; Activity (Staphylococcus aureus [6]): inactive; Activity (Staphylococcus aureus [7]): 3.54 log10CFU/ml; Activity (Staphylococcus aureus [8]): 99.989%; Activity (Staphylococcus aureus [9]): Active; Activity (Staphylococcus aureus [10]): 3.88 log10CFU/ml; Survival [11]: 33.3%; Activity (Staphylococcus aureus [12]): 3.92 log10CFU/ml; Activity (Staphylococcus aureus [13]): Not active; Compound Inhibited Bacterial Growth But Still Showed Surviving Bacteria Within The Detection Range After 8 H, Indicating Incomplete Bacterial Eradication; Survival [14]: 77.8%; Activity (Staphylococcus aureus [15]): Active; Activity (Staphylococcus aureus [16]): Active; Activity (Staphylococcus aureus [17]): inactive; Activity (Staphylococcus aureus [18]): 97.24%
2 | CCCCCCNC(=O)C[n+]1ccc(SCCCCOc2ccc3ccc(=O)oc3c2CC=C(C)C)cc1.[Br-] | 1 | 2 | 2 | 2 | > 160 | 2 | 1 | 2 | 1 | 1 | 32 | 1 | 2 | –
3 | CC(C)=CCc1c(OCCCCSc2cc[n+](CC(=O)N(C(C)C)C(C)C)cc2)ccc2ccc(=O)oc12.[Br-] | 2 | 2 | 4 | 4 | > 160 | 2 | 2 | 2 | 2 | 1 | > 128 | 1 | 2 | –
4 | CC[C@H](C)[C@H](NC(=O)CN)C(=O)NCC(=O)N[C@@H](C)C(=O)N[C@H](C(=O)N[C@@H](CC(C)C)C(=O)N[C@@H](CCCCN)C(=O)N[C@H](C(=O)N[C@@H](CC(C)C)C(=O)N[C@H](C(=O)N[C@H](C(=O)NCC(=O)N[C@@H](CC(C)C)C(=O)N1CCC[C@H]1C(=O)N[C@@H](C)C(=O)N[C@@H](CC(C)C)C(=O)N[C@H](C(=O)N[C@@H](CO)C(=O)N[C@@H](Cc1c[nH]c2ccccc12)C(=O)N[C@H](C(=O)N[C@@H](CCCCN)C(=O)N[C@@H](CCCNC(=N)N)C(=O)N[C@@H](CCCCN)C(=O)N[C@@H](CCCNC(=N)N)C(=O)N[C@@H](CCC(N)=O)C(=O)N[C@@H](CCC(N)=O)C(N)=O)[C@@H](C)CC)[C@@H](C)CC)[C@@H](C)O)[C@@H](C)O)C(C)C)C(C)C [MELITTIN] | – | – | – | – | – | – | – | – | – | – | – | – | – | fold change (FC) (Staphylococcus aureus [31]): ~8
5 | CC(C)=CCc1c(OCCCSc2cc[n+](CC(=O)N(CC(C)C)CC(C)C)cc2)ccc2ccc(=O)oc12.[Br-] | 2 | 2 | 4 | 4 | > 160 | 2 | 4 | 2 | 2 | 2 | > 128 | 1 | 2 | –
